Results from US20240092829A1, “PEPTIDE HAVING PROTECTIVE ACTIVITY AGAINST CELL DAMAGE CAUSED BY PARTICULATE MATTER, AND USES FOR SAME” (CAREGEN CO., LTD., priority 2020, published 2024).
Peptide text beside a SMILES is read from it.

What was measured:
[1] = tested on: cytochrome P450; test: Cytochrome P450 activity in HaCaT cells (P450-Glo Assay kit); format: cell-based; conditions: HaCaT human keratinocytes; peptide pretreatment 1 hour at 20, 100, 200 μM; then 50 μg/cm^2 urban particulate matter 24 hours; FIG. 3
Text: When polyaromatic hydrocarbons (PAHs) present in particulate matter penetrate into cells and bind to AHR, it promotes nuclear translocation of AHR. It is known that the AHR translocated into the nucleus forms a complex AHR/ARNT with an AHR nuclear translocator (ARNT), and this complex act as a transcription factor to promote the expression of cytochrome P450 (CYPs). In order to confirm the effect of the synthesized peptide in inhibiting cell damage caused by particulate matter, an experiment was performed for confirming whether the peptide inhibits the activity of cytochrome P450 after the cells were treated with particulate matter.
(§1) First, HaCaT cells, which are human keratinocytes, were seeded into a 96-well plate at a density of 1×10^4 cells/well. After overnight incubation, the media were replaced with serum-free media. The keratinocytes, HaCaT were pretreated with the synthesized peptides for 1 hour at each concentration (20 μM, 100 μM, and 200 μM). Then, the cells were treated with 50 μg/cm^2 of urban particulate matter (Sigma, NIST1648A) for 24 hours. After the keratinocytes were collected, the activity of cytochrome P450 was measured using P450-Glo™ Assay kit (Promega).

[2] = tested on: cytochrome P450; test: Cytochrome P450 activity in A549 cells (P450-Glo Assay kit); format: cell-based; conditions: A549 human alveolar epithelial cells; peptide pretreatment 1 hour at 20, 100, 200 μM; then 50 μg/cm^2 urban particulate matter 24 hours; FIG. 4
Description: In addition, in order to confirm whether the peptide of the present invention can suppress respiratory damage caused by particulate matter, an experiment for measuring the activity of cytochrome P450 was also performed on A549 cells, which are human alveolar epithelial cells.
as §1, with “human alveolar epithelial” for “HaCaT”, “A549 cells” for “which are human keratinocytes,”, “1.2×10^4” for “1×10^4”, “alveolar epithelial cells, A549 cells” for “keratinocytes, HaCaT”, “treated cells” for “keratinocytes”

- activity of cytochrome P450 increased by the treatment of particulate matter [1]: reduced
- activity of cytochrome P450 increased by the treatment of particulate matter [2]: reduced
SMILES: CSCC[C@H](NC(=O)[C@H](Cc1ccc(O)cc1)NC(=O)[C@@H](N)Cc1c[nH]c2ccccc12)C(=O)O [SEQ ID NO: 1, Trp Tyr Met] (H-Trp-Tyr-Met-OH; N-terminus and C-terminus assumed)
